The values below come from patent publication US20220315624A1, “THIOSTREPTON ANALOGS AND METHODS OF MAKING AND USING SAME” (YALE UNIVERSITY, priority 2019, published 2022).

Values after ≈ are worked out from the molar mass of the structure shown. Read-outs that look alike come from different tables or passages of the source.

Test [1] deals with S. aureus ATCC 29213 MSSA. Conditions: range in parentheses; cited from earlier work.
Test [2] deals with E. faecalis ATCC 29212 VSE. Conditions: range in parentheses; cited from earlier work.
In test [3] the test system is S. pyogenes ATCC 19615. Briefly: MIC broth microdilution. Format: cell-based. Conditions: Streptococcus pyogenes, ATCC19615, 20 h. The essentials: (§1)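 Clinical isolates or ATCC strains were tested by CLSI broth microdilution. Wells held approximately 5.0×10^5 CFU/mL in cation-adjusted Mueller Hinton broth, supplemented for streptococci with 3% lysed horse blood, and plates sat at 35° C. for 16-20 hr (streptococci 20-24 hr) before visual MIC reading.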
In general terms: In broth dilution the organism is exposed to a series of concentrations in liquid medium.

Test [4] deals with S. aureus ATCC 29213 MSSA. Briefly: MIC broth microdilution. As to conditions: Staphylococcus aureus. It counts as cell-based. The essentials:
as §1

The test system of test [5] is E. faecalis ATCC 29212 VSE. The experiment in a line: MIC broth microdilution. It counts as cell-based. Conditions: Enterococcus faecalis, ATCC29212. The essentials:
as §1

Test [6] deals with S. pneumoniae ATCC 49619 PISP. Briefly: MIC broth microdilution. It counts as cell-based. Conditions: Streptococcus pneumoniae, ATCC49619, 20 h. A digest of the protocol: as §1
Test [7] relates to S. aureus MMX 8088 MRSA. The experiment in a line: MIC broth microdilution. Format: cell-based. Conditions: Staphylococcus aureus. The essentials:
as §1

The test system of test [8] is E. faecium MMX 485 VRE. Briefly: MIC broth microdilution. Format: cell-based. Conditions: Enterococcus faecium. A digest of the protocol: as §1
The subject of test [9] is E. faecium MMX 708 VSE. Briefly: MIC broth microdilution. Format: cell-based. Conditions: Enterococcus faecium, MMX708VSE. A digest of the protocol:
as §1

For test [10], the system named is E. faecalis MMX 486 VRE. Briefly: MIC broth microdilution. Format: cell-based. Conditions: Enterococcus faecalis. The essentials:
as §1

Test [11] concerns E. coli ATCC 25922. Briefly: MIC broth microdilution. As to conditions: Escherichia coli, ATCC25922. Format: cell-based. A digest of the protocol:
as §1

For test [12], the system named is S. pneumoniae ATCC 49619 PISP. As to conditions: range in parentheses; cited from earlier work.
Test [13] relates to E. coli ATCC 25922. As to conditions: range in parentheses; cited from earlier work.

For `CN[C@H](CC(C)C)C(=O)N[C@H]1C(=O)N[C@@H](CC(N)=O)C(=O)N[C@H]2C(=O)N[C@H]3C(=O)N[C@H](C(=O)N[C@H](C(=O)O)c4cc(O)cc(O)c4-c4cc3ccc4O)[C@H](O)c3ccc(c(Cl)c3)Oc3cc2cc(c3O[C@@H]2O[C@H](CO)[C@@H](O)[C@H](O)[C@H]2O[C@H]2C[C@](C)(N)[C@H](O)[C@H](C)O2)Oc2ccc(cc2Cl)[C@H]1O` [Vancomycin, reference compound], the entries for the “CLSI quality control range (MIC)” value in [1], in test [2] and in test [12] were 0.5 to 2 µg/mL, 1 to 4 µg/mL and 0.12 to 0.5 µg/mL, respectively. Besides, the MIC in [3] was 0.25 µg/mL (≈ 0.173 µM); in test [4], 1 µg/mL (≈ 0.69 µM); in test [5] it was 2 µg/mL (≈ 1.38 µM); in test [6], 0.12 µg/mL (≈ 0.0828 µM); in [7] (MRSA), 1 µg/mL (≈ 0.69 µM); in [8] (VRE), greater than 32 µg/mL. Moreover, the minimum inhibitory concentration (MIC) was 0.25 µg/mL (≈ 0.173 µM) in test [9], greater than 32 µg/mL in test [10] (VRE) and greater than 64 µg/mL in [11].

Regarding `CC(C)(O/N=C(\C(=O)N[C@@H]1C(=O)N2C(C(=O)[O-])=C(C[n+]3ccccc3)CS[C@H]12)c1csc(N)n1)C(=O)O` [Ceftazidime, reference compound], the “CLSI quality control range (MIC)” value in test [1] is 4 to 16 µg/mL; in [13] it was 0.06 to 0.5 µg/mL. Further, the MIC is 0.12 µg/mL (≈ 0.22 µM) in [3] (S. pyogenes ATCC 19615, CAMHB with 3% lysed horse blood, read-out: MIC); 8 µg/mL (≈ 14.6 µM) in [4] (S. aureus ATCC 29213 MSSA, CAMHB, read-out: MIC); greater than 32 µg/mL in [5] (E. faecalis ATCC 29212 VSE, CAMHB, read-out: MIC); 0.5 µg/mL (≈ 0.915 µM) in test [6] (S. pneumoniae ATCC 49619 PISP, CAMHB with 3% lysed horse blood, read-out: MIC); greater than 32 µg/mL in test [7] (S. aureus MMX 8088 MRSA, CAMHB, read-out: MIC); greater than 32 µg/mL in test [8] (E. faecium MMX 485 VRE, CAMHB, read-out: MIC). Besides, the MIC was greater than 32 µg/mL in [9] (E. faecium MMX 708 VSE, CAMHB, read-out: MIC); greater than 32 µg/mL in test [10] (E. faecalis MMX 486 VRE, CAMHB, read-out: MIC); 0.25 µg/mL (≈ 0.457 µM) in test [11] (E. coli ATCC 25922, CAMHB, read-out: MIC).

One may read the MIC as the lowest concentration that inhibits growth of the organism.
